From US11999746B2, “Compounds” (GlaxoSmithKline Intellectual Property Development Limited, priority 2014, dated 2024)

What was measured:
[1] = molecular target: T1, recombinant human Lp-PLA2 (Homo sapiens, UniProt Q13093); test: (1a) PED6 assay, recombinant human Lp-PLA2 (rhLp-PLA2); format: biochemical; conditions: Examples 1-167 and 413-430 were tested here, one experiment or average of multiple experiments, read-out: rhLp-PLA2 (pIC50) (converted)
T1 sequence (Q13093 22-441): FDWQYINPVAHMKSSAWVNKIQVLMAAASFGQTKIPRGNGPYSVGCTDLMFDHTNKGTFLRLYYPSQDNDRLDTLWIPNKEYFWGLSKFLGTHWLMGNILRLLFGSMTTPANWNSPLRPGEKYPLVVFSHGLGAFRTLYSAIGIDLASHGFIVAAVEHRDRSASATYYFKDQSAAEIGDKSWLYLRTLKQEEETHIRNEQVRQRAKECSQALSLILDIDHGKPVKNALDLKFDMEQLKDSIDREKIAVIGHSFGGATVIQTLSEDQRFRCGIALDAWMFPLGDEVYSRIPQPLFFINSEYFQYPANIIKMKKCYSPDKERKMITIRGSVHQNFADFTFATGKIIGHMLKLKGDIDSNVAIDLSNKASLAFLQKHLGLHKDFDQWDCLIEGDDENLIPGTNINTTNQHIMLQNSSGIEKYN
How it was run: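 PED6 (2 μM final after 1:1 addition of 4 μM stock) cleavage by rhLp-PLA2 (4 nM working solution) in 50 mM HEPES pH 7.4, 150 mM NaCl, 1 mM CHAPS; compounds preincubated with enzyme 30 minutes, reaction 20 min at room temperature. Fluorescence at ex 480/em 540; pIC50 from curve fit.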

Lp-PLA2 in human plasma = molecular target: T2, Lp-PLA2 in human plasma (Homo sapiens, UniProt Q13093); test: (3a) Lp-PLA2 human plasma Thio-PAF assay; format: biochemical; conditions: (3a) Thio-PAF assay, pooled human plasma; Examples 1-265 and 413-430 were tested here; read-out: pIC50 in the Lp-PLA2 human plasma assay (converted)
T2 construct: from tissue; host or cells: pooled human plasma
T2 sequence (Q13093 22-441): T1 sequence (Q13093 22-441)
How it was run: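 Endogenous Lp-PLA2 activity in frozen pooled human plasma measured as thiol release from 2-thio-PAF, detected by CPM fluorescence (ex 380/em 485). Compound preincubation 30 min; 2-min reaction in HEPES pH 7.4 buffer with NEM, stopped with 5% TFA, read 40 min later at room temperature; values as pIC50.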

| SMILES | IC50 [1] [nM] | IC50 (Lp-PLA2 in human plasma) [nM] |
| --- | --- | --- |
| CN1c2cc(OCc3cccc(F)c3)nc(=O)n2CC12CCCC2 [Example 418] | ≤ 100 | ≤ 100 |
| O=c1nc(OCc2ccc(F)cc2F)cc2n1C[C@H]1CCCCN21 [Example E55, (R)-3-((2,4-Difluorobenzyl)oxy)-6,7,8,9,9a,10-hexahydro-1H-pyrido[1′,2′:3,4]imidazo[1,2-c] pyrimidin-1-one] | ≤ 100 | ≤ 10000 |
| O=c1nc(OCc2cc(F)c(Oc3ccnc(C(F)(F)F)c3)c(F)c2)cc2n1CC1OCCCN21 (single isomer, unassigned) [Example E163, 7-((3,5-difluoro-4-((2-(trifluoromethyl)pyridin-4-yl)oxy)benzyl)oxy)-3,4,11,11a-tetrahydropyrimido[6′,1′:2,3]imidazo[5,1-b][1,3]oxazin-9(2H)-one] | ≤ 100 | ≤ 10000 |
| Cn1cc(Oc2c(F)cc(COc3cc4n(c(=O)n3)C[C@@H]3CCCCN43)cc2F)cn1 [Example E50, (S)-3-((3,5-difluoro-4-((1-methyl-1H-pyrazol-4-yl)oxy)benzyl)oxy)-6,7,8,9,9a,10-hexahydro-1H-pyrido[1′,2′:3,4]imidazo[1,2-c]pyrimidin-1-one] | ≤ 100 | ≤ 10000 |
| CN1c2cc(OCc3cccc(F)c3F)nc(=O)n2CC12CCC2 [Example 420, 7′4(2,3-difluorobenzyhoxy)-1-methyl-1H-spiro[cyclobutane-1,2′-imidazo[1,2-c]pyrimidin]-5′(3′H)-one] | ≤ 100 | ≤ 10000 |
| O=c1nc(OCc2ccc(Oc3ccc(C(F)(F)F)nc3)c(F)c2)cc2n1CC1CCCCN21 (stereo not shown) [Example E22, 3-((3-Fluoro-4-((6-(trifluoromethyl)pyridin-3-yl)oxy)benzyl)oxy)-6,7,8,9,9a,10-hexahydro-1H-pyrido[1′,2′:3,4]imidazo[1,2-c]pyrimidin-1-one] | ≤ 1 | ≤ 10000 |
| CCCn1cc(Oc2c(F)cc(COc3cc4n(c(=O)n3)C[C@H]3COCN43)cc2F)cn1 [Example E150, (S)-6-((3,5-difluoro-4-((1-propyl-1H-pyrazol-4-yl)oxy)benzyl)oxy)-10,10a-dihydro-1H-oxazolo[3′,4′:3,4]imidazo[1,2-c]pyrimidin-8(3H)-one] | ≤ 100 | ≤ 100 |
| O=c1nc(OCc2cc(F)c(Oc3cccc(C(F)(F)F)c3)c(F)c2)cc2n1CC1CCCN21 (stereo not shown) [Example E81, 3-((3,5-difluoro-4-(3-(trifluoromethyl)phenoxy)benzyl)oxy)-7,8,8a,9-tetrahydropyrrolo[1′,2′:3, 4]imidazo[1,2-c]pyrimidin-1(6H)-one] | ≤ 1 | ≤ 100 |
| N#Cc1cc(COc2cc3n(c(=O)n2)CC2CCCCN32)ccc1Oc1ccc(C(F)(F)F)cc1 (stereo not shown) [Example E23, 5-(((1-Oxo-6,7,8,9,9a,10-hexahydro-1H-pyrido[1′,2′:3,4]imidazo[1,2-c]pyrimidin-3-yl)oxy)methyl)-2-(4-(trifluoromethyl)phenoxy)benzonitrile] | ≤ 1 | ≤ 100 |
| O=c1nc(OCc2cc(F)c(OC3CN(CCC(F)(F)F)C3)c(F)c2)cc2n1C[C@@H]1CCCN21 [Example E97, (S)-3-((3,5-difluoro-4-((1-(3,3,3-trifluoropropyl)azetidin-3-yl)oxy)benzyl)oxy)-7,8,8a,9-tetra hydropyrrolo[1′,2′:3,4]imidazo[1,2-c]pyrimidin-1(6H)-one] | ≤ 100 | ≤ 10000 |
| CN1CCN2c3cc(OCc4cc(F)c(Oc5ccnc(C(F)(F)F)c5)c(F)c4)nc(=O)n3CC2C1 (stereo not shown) [Example E166, 7-((3,5-Difluoro-4-((2-(trifluoromethyl)pyridin-4-yl)oxy)benzyl)oxy)-2-methyl-3,4,11,11a-tetrahydro-1H-pyrazino[1′,2′:3,4]imidazo[1,2-c]pyrimidin-9(2H)-one] | ≤ 1 | ≤ 100 |
| N#Cc1cc(COc2cc3n(c(=O)n2)CC2CCCN32)ccc1Oc1cc(F)cc(F)c1 (stereo not shown) [Example E87, 2-(3,5-Difluorophenoxy)-5-(((1-oxo-1,6,7,8,8a,9-hexahydropyrrolo[1,2′:3,4]imidazo[1,2-c]pyrimidin-3-yl)oxy)methyl)benzonitrile] | ≤ 1 | ≤ 100 |

Continued, values first:

| IC50 [1] [nM] | IC50 (Lp-PLA2 in human plasma) [nM] | SMILES |
| --- | --- | --- |
| ≤ 100 | ≤ 10000 | O=c1nc(OCc2cc(F)c(OC3CCC(F)(F)C3)c(F)c2)cc2n1C[C@@H]1CCCN21 (stereo partly drawn) [Example E95, (S)-3-((4-((3,3-difluorocyclopentyl)oxy)-3,5-difluorobenzyl)oxy)-7,8,8a,9-tetrahydropyrrolo[1′,2′:3,4]imidazo[1,2-c]pyrimidin-1(6H)-one] |
| ≤ 100 | ≤ 10000 | O=c1nc(OCc2cc(F)cc(F)c2)cc2n1C[C@H]1COCN21 [Example E147, (S)-6-((3,5-difluorobenzyl)oxy)-10,10a-dihydro-1H-oxazolo[3′,4′:3,4]imidazo[1,2-c] pyrimidin-8(3H)-one] |
| ≤ 1 | ≤ 100 | CCCn1cc(Oc2c(F)cc(COc3cc4n(c(=O)n3)C[C@H]3COCCN43)cc2F)cn1 [Example E112, (S)-7-((3,5-difluoro-4-((1-propyl-1H-pyrazol-4-yl)oxy)benzyl)oxy)-3,4,11,11atetrahydropyrimido[6′,1′:2,3]imidazo[5,1-c][1,4]oxazin-9(1H)-one] |
| ≤ 100 | ≤ 10000 | O=c1nc(OCc2cc(F)c(F)c(F)c2)cc2n1C[C@@H]1CCCN21 [Example E73, (S)-3-((3,4,5-trifluorobenzyl)oxy)-7,8,8a,9-tetrahydropyrrolo[1,2′:3,4]imidazo[1,2-c] pyrimidin-1(6H)-one] |
| ≤ 100 | ≤ 100 | CN1c2cc(OCc3cc(F)c(F)c(F)c3)nc(=O)n2CC12CCC2 [Example 423, 1′-methyl-7′-((3,4,5-trifluorobenzyl)oxy)-1′H-spiro[cyclobutane-1,2′-imidazo[1,2-c]pyrimidin]-5′(3′H)-one] |
| ≤ 100 | ≤ 10000 | CN1c2cc(OCc3cc(F)c(F)c(F)c3)nc(=O)n2CC12CCCCC2 [Example 422, 1′-methyl-7′-((3,4,5-trifluorobenzyl)oxy)-1′H-spiro[cyclohexane-1,2′-imidazo[1,2-c]pyrimidin]-5′(3′H)-one] |
| ≤ 1 | ≤ 100 | Cc1ccc(Oc2c(F)cc(COc3cc4n(c(=O)n3)C[C@@H]3COCCN43)cc2F)cn1 [Example E118, (R)-7-((3,5-difluoro-4-((6-methylpyridin-3-yl)oxy)benzyl)oxy)-3,4,11,11atetrahydropyrimido[6′,1′:2,3]imidazo[5,1-c][1,4]oxazin-9(1H)-one] |
| ≤ 100 | ≤ 10000 | Cc1cc(COc2cc3n(c(=O)n2)CC2CCCCN32)cc(F)c1F (stereo not shown) [Example E14, 3-((3,4-Difluoro-5-methylbenzyl)oxy)-6,7,8,9,9a,10-hexahydro-1H pyrido[1′,2′:3,4]imidazo-[1,2-c]pyrimidin-1-one] |
| ≤ 100 | ≤ 10000 | O=c1nc(OCc2cc(F)c(F)c(F)c2)cc2n1C[C@@H]1COCCN21 [Example E123, (R)-7-((3,4,5-trifluorobenzyl)oxy)-3,4,11,11atetrahydropyrimido[6′,1′:2,3]imidazo[5,1-c][1,4] oxazin-9(1H)-one] |
| ≤ 100 | ≤ 10000 | O=c1nc(OCc2cc(F)c(OC3CCC(F)(F)C3)c(F)c2)cc2n1CC1CCCN21 (stereo not shown) [Example E94, 3-((4-((3,3-difluorocyclopentyl)oxy)-3,5-difluorobenzyl)oxy)-7,8,8a,9-tetrahydropyrrolo[1′,2′:3,4]imidazo[1,2-c]pyrimidin-1(6H)-one] |
| ≤ 100 | ≤ 10000 | O=c1nc(OCc2cccc(F)c2)cc2n1C[C@@H]1COCCN21 [Example E132, (R)-7-((3-fluorobenzyl)oxy)-3,4,11,11a-tetrahydropyrimido[6′,1′:2,3]imidazo[5,1-c][1,4] oxazin-9(1H)-one] |
| ≤ 100 | ≤ 10000 | CCCn1cc(Oc2c(F)cc(COc3cc4n(c(=O)n3)C[C@@H]3COCCN43)cc2F)cn1 [Example E122, (R)-7-((3,5-difluoro-4-((1-propyl-1H-pyrazol-4-yl)oxy)benzyl)oxy)-3,4,11,11atetrahydropyrimido[6′,1′:2,3]imidazo[5,1-c][1,4]oxazin-9(1H)-one] |
| ≤ 100 | ≤ 10000 | Cc1ccc(Oc2c(F)cc(COc3cc4n(c(=O)n3)C[C@@H]3COCN43)cc2F)cn1 [Example E157, (R)-6-((3,5-difluoro-4-((6-methylpyridin-3-yl)oxy)benzyl)oxy)-10,10a-dihydro-1H-oxazolo[3′,4′:3,4]imidazo[1,2-c]pyrimidin-8(3H)-one] |
| ≤ 100 | ≤ 10000 | Cn1cc(Oc2c(F)cc(COc3cc4n(c(=O)n3)C[C@H]3CCCN43)cc2F)cn1 [Example E66, (R)-3-((3,5-difluoro-4-((1-methyl-1H-pyrazol-4-yl)oxy)benzyl)oxy)-7,8,8a, 9-tetrahydro pyrrolo[1′,2′:3,4]imidazo[1,2-c]pyrimidin-1(6H)-one] |
